Read-outs that look alike come from different tables or passages of the source.
Experiments:
[1] = target: T1, human recombinant TYK2 protein (Homo sapiens, UniProt P29597); assay: TYK2 Inhibition Assay (HTRF kinase assay); assay type: biochemical; conditions: human recombinant TYK2, 11.25 μM ATP substrate solution
T1 construct: purchased Carna Biosciences 08-147
T1 sequence (P29597 871-1187 limits assumed): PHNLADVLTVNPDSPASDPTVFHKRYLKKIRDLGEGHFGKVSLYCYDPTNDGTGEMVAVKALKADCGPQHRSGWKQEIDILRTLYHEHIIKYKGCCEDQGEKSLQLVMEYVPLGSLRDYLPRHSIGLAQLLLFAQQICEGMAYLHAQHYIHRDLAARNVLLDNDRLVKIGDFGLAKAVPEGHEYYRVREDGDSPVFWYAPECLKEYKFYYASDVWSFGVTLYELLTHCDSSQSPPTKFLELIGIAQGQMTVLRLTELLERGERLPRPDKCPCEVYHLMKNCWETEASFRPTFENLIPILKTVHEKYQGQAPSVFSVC
Procedure, shortened: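 Recombinant human TYK2 was pre-incubated 15 min at room temperature with compound, then reacted for 40 min with biotinylated tyrosine-kinase substrate and ATP (substrate solution 11.25 μM ATP, 0.5 μM substrate; 5 mM MgCl2, 0.01% Brij35). Phosphorylation was read by HTRF 665/620 ratio, normalised to no-enzyme and no-compound controls, and IC50 was fitted from 8 4-fold dilutions.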

[2] = target: T2, human recombinant JAK2 protein (Homo sapiens, UniProt O60674); assay: JAK2 Inhibition Assay (HTRF kinase assay); assay type: biochemical; conditions: human recombinant JAK2, 2.5 μM ATP substrate solution
T2 construct: purchased Carna Biosciences 08-045
T2 sequence (O60674 826-1132 limits assumed): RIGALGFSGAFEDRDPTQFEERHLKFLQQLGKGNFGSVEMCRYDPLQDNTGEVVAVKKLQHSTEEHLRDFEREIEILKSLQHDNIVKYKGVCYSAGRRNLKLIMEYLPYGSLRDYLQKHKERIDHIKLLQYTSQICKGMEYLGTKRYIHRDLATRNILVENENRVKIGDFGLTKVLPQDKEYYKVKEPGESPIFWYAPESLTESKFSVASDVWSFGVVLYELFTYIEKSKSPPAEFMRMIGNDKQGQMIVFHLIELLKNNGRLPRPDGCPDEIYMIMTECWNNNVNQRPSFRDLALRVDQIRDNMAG
Procedure, shortened: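 Recombinant human JAK2 was preincubated 15 min at room temperature with compound in buffer containing 5 mM MgCl2, 1 mM DTT and 0.01% Brij35. Substrate solution (2.5 μM ATP, 0.25 μM biotinylated TK substrate) was then added for 30 min. Phosphorylation was detected by HTRF (665/620 nm ratio; no-enzyme = 100% inhibition), and IC50 was fitted from an 8-point, 4-fold series.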

[3] = system: IL-12-induced IFN-γ secretion in NK92 cells; assay: Inhibition of IL-12-induced IFN-γ Secretion in NK92 Cells (ELISA); assay type: cell-based, human; conditions: 24 hours incubation, 8 concentration points, read-out: IC50 (NK92_IL12/IFNγ)
Procedure, shortened: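 NK92 cells (100,000/well, IL-2-free medium) rested overnight, then treated with compound plus IL-12 for 24 h at 37 °C. Secreted IFN-γ measured in supernatant by ELISA. Inhibition normalized to unstimulated and IL-12/0.2% DMSO controls; IC50 fitted from 8 concentrations.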

| Compound | IC50 [1] | IC50 [2] | IC50 ([3]; Homo sapiens) | IC50 [3] |
| --- | --- | --- | --- | --- |
| C[C@@H](O)Cn1cc(Nc2ncc(Cl)c(N3C[C@]4(C)CN(C(=O)C5CC5)C[C@]4(C)C3)n2)cn1 [Compound 17, ((3aR,6aS)-5-(5-chloro-2-((1-((R)-2-hydroxypropyl)-1H-pyrazol-4-yl)amino)pyrimidin-4-yl)-3a,6a-dimethylhexahydropyrrolo[3,4-c]pyrrol-2(1H)-yl)(cyclopropyl)methanone] | 1.6 nM | 3.2 nM | 1050 nM |  |
| Cc1cnc(Nc2cnn(C)c2)nc1N1C[C@@]2(C)CN(S(C)(=O)=O)C[C@@]2(C)C1 [Compound 55, 4-((3aR,6aS)-3a,6a-dimethyl-5-(methylsulfonyl)hexahydropyrrolo[3,4-c]pyrrol-2(1H)-yl)-5-methyl-N-(1-methyl-1H-pyrazol-4-yl)pyrimidin-2-amine] | 1.7 nM | 3.7 nM | 413 nM |  |
| Cn1cc(Nc2ncc(Cl)c(N3C[C@@]4(C)CN(S(C)(=O)=O)C[C@@]4(C)C3)n2)cn1 [Compound 34, 5-chloro-4-((3aR,6aS)-3a,6a-dimethyl-5-(methylsulfonyl)hexahydropyrrolo[3,4-c]pyrrol-2(1H)-yl)-N-(1-methyl-1H-pyrazol-4-yl)pyrimidin-2-amine] | 0.6 nM | 1.8 nM | 287 nM |  |
| Cn1cc(Nc2ncc(Cl)c(N3C[C@H]4CN(C(=O)C5CC5)C[C@@]4(C)C3)n2)cn1 (racemic) [Compound 62, cis-(5-(5-chloro-2-((1-methyl-1H-pyrazol-4-yl)amino)pyrimidin-4-yl)-3a-methylhexahydropyrrolo[3,4-c]pyrrol-2(1H)-yl)(cyclopropyl)methanone] | 0.6 nM | 2.6 nM | 269 nM |  |
| CCC(=O)N1C[C@@]2(C)CN(c3nc(Nc4cnn(C)c4)ncc3Cl)C[C@@]2(C)C1 [Compound 36, 1-((3aR.,6aS)-5-(5-chloro-2-((1-methyl-1H-pyrazol-4-yl)amino)pyrimidin-4-yl)-3a,6a-dimethylhexahydropyrrolo[3,4-c]pyrrol-2(1H)-yl)propan-1-one] | 1.8 nM | 4.1 nM | 592 nM |  |
| Cn1cc(Nc2ncc(Cl)c(N3C[C@]4(C)CN(C(=O)[C@@H]5CC5(F)F)C[C@]4(C)C3)n2)cn1 [Compound 22, ((3aR,6aS)-5-(5-chloro-2-((1-methyl-1H-pyrazol-4-yl)amino)pyrimidin-4-yl)-3a,6a-dimethylhexahydropyrrolo[3,4-c]pyrrol-2(1H)-yl)((S)-2,2-difluorocyclopropyl)methanone] | 0.8 nM | 1.4 nM | 305 nM |  |
| C[C@H](O)Cn1cc(Nc2ncc(Cl)c(N3C[C@]4(C)CN(C(=O)C5CC5)C[C@]4(C)C3)n2)cn1 [Compound 18] | 1.6 nM | 3.5 nM | 617 nM |  |
| Cn1cc(Nc2ncc(Cl)c(N3C[C@]4(C)CN(C(=O)[C@H]5CC5(F)F)C[C@]4(C)C3)n2)cn1 [Compound 21] | 2 nM | 10 nM | 490 nM |  |
| Cn1cc(Nc2ncc(Cl)c(N3C[C@]4(C)CN(C(=O)C5(C#N)CC5)C[C@]4(C)C3)n2)cn1 [Compound 42, 1-((3aR,6aS)-5-(5-chloro-2-((1-methyl-1H-pyrazol-4-yl)amino)pyrimidin-4-yl)-3a,6a-dimethyloctahydropyrrolo[3,4-c]pyrrole-2-carbonyl)cyclopropane-1-carbonitrile] | 5.7 nM | 20 nM | 3470 nM |  |
| C[C@@]12CN(C(=O)CC#N)C[C@]1(C)CN(c1nc(Nc3cnn(CCO)c3)ncc1Cl)C2 [Compound 31, 3-((3aR,6aS)-5-(5-chloro-2-((1-(2-hydroxyethyl)-1H-pyrazol-4-yl)amino)pyrimidin-4-yl)-3a,6a-dimethylhexahydropyrrolo[3,4-c]pyrrol-2(1H)-yl)-3-oxopropanenitrile] | 0.5 nM | 0.4 nM | 2780 nM |  |
| Cn1cc(Nc2ncc(Cl)c(N3C[C@@H]4CN(C(=O)CC#N)C[C@]4(C)C3)n2)cn1 (racemic) [Compound 63, cis-3-(5-(5-chloro-2-((1-methyl-IH-pyrazol-4-yl)amino)pyrimidin-4-yl)-3a-methylhexahydropyrrolo[3,4-c]pyrrol-2(1H)-yl)-3-oxopropanenitrile] | 0.3 nM | 1.2 nM | 267 nM |  |
| Cn1cc(Nc2ncc(F)c(N3C[C@]4(C)CN(CC(F)F)C[C@]4(C)C3)n2)cn1 [Compound 14, 4-((3aR,6aS)-5-(2,2-difluoroethyl)-3a,6a-dimethylhexahydropyrrolo[3,4-c]pyrrol-2(1H)-yl)-5-fluoro-N-(1-methyl-1H-pyrazol-4-yl)pyrimidin-2-amine] | 14 nM | 68 nM | 1320 nM |  |
| Cc1cnc(Nc2cnn(C)c2)nc1N1C[C@]2(C)CN(C(=O)[C@@H]3CC3(F)F)C[C@]2(C)C1 [Compound 56, ((S)-2,2-difluorocyclopropyl)((3aR,6aS)-3a,6a-dimethyl-5-(5-methyl-2-((1-methyl-1H-pyrazol-4-yl)amino)pyrimidin-4-yl)hexahydropyrrolo[3,4-c]pyrrol-2(1H)-yl)methanone] | 1.7 nM | 2.5 nM | 505 nM |  |
| Cn1cc(Nc2ncc(Cl)c(N3C[C@@H]4CN(C(=O)[C@@H]5CC5(F)F)C[C@]4(C)C3)n2)cn1 [Compound 90] | 0.1 nM | 0.6 nM | 96 nM |  |
| cyclopropyl((3aR,6aS)-3a,6a-dimethyl-5-(5-methyl-2((1-methyl-1H-pyrazol-4-yl)amino)pyriraidin-4-yl)hexahydropyrrolo[3,4-c]pyrrol-2(1H)-yl)methanone [Compound 24] | 4.1 nM | 20 nM |  | 1070 nM |
| Cn1cc(Nc2ncc(Cl)c(N3C[C@@]4(C)CN(CC#N)C(=O)[C@@]4(C)C3)n2)cn1 (racemic) [Compound 92, cis-2-(5-(5-Chloro-2-((1-methyl-1H-pyrazol-4-yl)amino)pyrimidin-4-yl)-3a,6a-dimethyl-1-oxohexahydropyrrolo[3,4-c]pyrrol-2(1H)-yl)acetonitrile] | 1.1 nM | 4.1 nM | 398 nM |  |
| Cc1cnc(Nc2cnn(C)c2)nc1N1C[C@]2(C)CN(C(=O)CC(F)(F)F)C[C@]2(C)C1 [Compound 60, 1-((3aR.,6aS)-3a,6a-dimethyl-5-(5-methyl-2-((1-methyl-1H-pyrazol-4-yl)amino)pyrimidin-4-yl)hexahydropyrrolo[3,4-c]pyrrol-2(1H)-yl)-3,3,3-trifluoropropan-1-one] | 2.2 nM | 5.9 nM | 1380 nM |  |
| Cc1cnc(Nc2cnn(C)c2)nc1N1C[C@@H]2CN(Cc3ccno3)C[C@]2(C)C1 (racemic) [Compound 73, cis-4-(5-(isoxazol-5-ylmethyl)-3a-methylhexahydropyrrolo[3,4-c]pyrrol-2(1H)-yl)-5-methyl-N-(1-methyl-1H-pyrazol-4-yl)pyrimidin-2-amine] | 3.3 nM | 6 nM | 278 nM |  |
| Cc1cnc(Nc2cnn(C)c2)nc1N1C[C@@H]2CN(C(=O)CC#N)C[C@]2(C)C1 (racemic) [Compound 71, cis-3-(3a-methyl-5-(5-methyl-2-((1-methyl-1H-pyrazol-4-yl)amino)pyrimidin-4-yl)hexahydropyrrolo[3,4-c]pyrrol-2(1H)-yl)-3-oxopropanenitrile] | 1.2 nM | 3.3 nM | 3540 nM |  |

Reference: patent US12448382B2, “Heterocyclic compounds for mediating tyrosine kinase 2 activity” (GUANGZHOU INNOCARE PHARMA TECH CO., LTD., priority 2019, dated 2025)
